# Results taken from PubChem BioAssay (NCI).
#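 Interpolation was linear, between the two tested concentrations surrounding the appropriate level; five concentrations were tested over 48 hours in 96-well plates. TGI: concentration producing complete growth inhibition.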
# Tests used:
# Experiment in all cases: NCI anticancer screen, dose series, 48 h
# [1] = system: 786-0 renal
# [2] = system: A498 renal
# [3] = system: A549 NSCLC
# [4] = system: ACHN renal
# [5] = system: BT-549 breast
# [6] = system: CAKI-1 renal
# [7] = system: CCRF-CEM leukemia
# [8] = system: COLO 205 colon
# [9] = system: DU-145 prostate
# [10] = system: EKVX NSCLC
# [11] = system: HCC-2998 colon
# [12] = system: HCT-116 colon
# [13] = system: HCT-15 colon
# [14] = system: HL-60(TB) leukemia
# [15] = system: HOP-62 NSCLC
# [16] = system: HOP-92 NSCLC
# [17] = system: HS 578T breast
# [18] = system: HT29 colon
# [19] = system: K-562 leukemia
# [20] = system: KM12 colon
# [21] = system: LOX IMVI melanoma
# [22] = system: M14 melanoma
# [23] = system: MALME-3M melanoma
# [24] = system: MCF7 breast
# [25] = system: MDA-MB-231 breast
# [26] = system: MDA-MB-435
# [27] = system: MDA-N
# [28] = system: MOLT-4 leukemia
# [29] = system: NCI-H226 lung
# [30] = system: NCI-H23 lung
# [31] = system: NCI-H460 lung
# [32] = system: NCI-H522 lung
# [33] = system: NCI/ADR-RES ovarian
# [34] = system: OVCAR-3 ovarian
# [35] = system: OVCAR-4 ovarian
# [36] = system: OVCAR-5 ovarian
# [37] = system: OVCAR-8 ovarian
# [38] = system: PC-3 prostate
# [39] = system: RPMI-8226 leukemia
# [40] = system: RXF 393 renal
# [41] = system: SF-268 CNS
# [42] = system: SF-295 CNS
# [43] = system: SF-539 CNS
# [44] = system: SK-MEL-2 melanoma
# [45] = system: SK-MEL-28 melanoma
# [46] = system: SK-MEL-5 melanoma
# [47] = system: SK-OV-3 ovarian
# [48] = system: SN12C renal
# [49] = system: SNB-19 CNS
# [50] = system: SNB-75 CNS
# [51] = system: SR leukemia
# [52] = system: SW-620 colon
# [53] = system: T-47D breast
# [54] = system: TK-10 renal
# [55] = system: U251 CNS
# [56] = system: UACC-257 melanoma
# [57] = system: UACC-62 melanoma
# [58] = system: UO-31 renal
# [59] = system: IGROV1 ovarian
smiles,measurement,setting,value
Clc1ccc2oc(CCC3CCCCC3)nc2c1,TGI,[1],> 100 µM
same,TGI,[2],82.3 µM
same,TGI,[3],> 100 µM
same,TGI,[4],> 100 µM
same,TGI,[5],> 100 µM
same,TGI,[6],77.7 µM
same,TGI,[7],70.8 µM
same,TGI,[8],50.2 µM
same,TGI,[9],> 100 µM
same,TGI,[10],82.9 µM
same,TGI,[11],48.3 µM
same,TGI,[12],> 100 µM
same,TGI,[13],69.2 µM
same,TGI,[14],42.6 µM
same,TGI,[15],72.8 µM
same,TGI,[16],84.4 µM
same,TGI,[17],> 100 µM
same,TGI,[18],83.8 µM
same,TGI,[19],> 100 µM
same,TGI,[20],70.7 µM
same,TGI,[21],25.2 µM
same,TGI,[22],> 100 µM
same,TGI,[23],> 100 µM
same,TGI,[24],51.3 µM
same,TGI,[25],> 100 µM
same,TGI,[26],94.4 µM
same,TGI,[27],> 100 µM
same,TGI,[28],60.7 µM
same,TGI,[29],57.1 µM
same,TGI,[30],98.5 µM
same,TGI,[31],59.6 µM
same,TGI,[32],61.2 µM
same,TGI,[33],> 100 µM
same,TGI,[34],36.1 µM
same,TGI,[35],> 100 µM
same,TGI,[36],> 100 µM
same,TGI,[37],> 100 µM
same,TGI,[38],> 100 µM
same,TGI,[39],> 100 µM
same,TGI,[40],45.1 µM
same,TGI,[41],> 100 µM
same,TGI,[42],56.2 µM
same,TGI,[43],> 100 µM
same,TGI,[44],39.1 µM
same,TGI,[45],> 100 µM
same,TGI,[46],35 µM
same,TGI,[47],62.3 µM
same,TGI,[48],48.6 µM
same,TGI,[49],> 100 µM
same,TGI,[50],58.1 µM
same,TGI,[51],61.5 µM
same,TGI,[52],> 100 µM
same,TGI,[53],81.7 µM
same,TGI,[54],> 100 µM
same,TGI,[55],43.2 µM
same,TGI,[56],79.3 µM
same,TGI,[57],> 100 µM
same,TGI,[58],81.8 µM
CC(C)(C)N/N=C(\C(=O)Nc1ccc([N+](=O)[O-])cc1[N+](=O)[O-])c1nc2ccc([N+](=O)[O-])cc2[nH]c1=O,TGI,[1],> 100 µM
same,TGI,[2],> 100 µM
same,TGI,[3],> 100 µM
same,TGI,[4],> 100 µM
same,TGI,[5],> 100 µM
same,TGI,[6],> 100 µM
same,TGI,[7],> 100 µM
same,TGI,[8],> 100 µM
same,TGI,[9],> 100 µM
same,TGI,[10],> 100 µM
same,TGI,[11],> 100 µM
same,TGI,[12],> 100 µM
same,TGI,[13],> 100 µM
same,TGI,[14],> 100 µM
same,TGI,[16],> 100 µM
same,TGI,[17],> 100 µM
same,TGI,[18],> 100 µM
same,TGI,[59],> 100 µM
same,TGI,[19],> 100 µM
same,TGI,[20],> 100 µM
same,TGI,[21],> 100 µM
same,TGI,[22],> 100 µM
same,TGI,[23],> 100 µM
same,TGI,[24],> 100 µM
same,TGI,[25],> 100 µM
same,TGI,[26],> 100 µM
same,TGI,[27],> 100 µM
same,TGI,[28],> 100 µM
same,TGI,[29],> 100 µM
same,TGI,[30],> 100 µM
same,TGI,[31],> 100 µM
same,TGI,[32],> 100 µM
same,TGI,[33],> 100 µM
same,TGI,[34],> 100 µM
same,TGI,[35],> 100 µM
same,TGI,[36],> 100 µM
same,TGI,[37],> 100 µM
same,TGI,[38],> 100 µM
same,TGI,[39],> 100 µM
same,TGI,[40],> 100 µM
same,TGI,[41],> 100 µM
same,TGI,[42],> 100 µM
same,TGI,[43],> 100 µM
same,TGI,[44],> 100 µM
same,TGI,[45],> 100 µM
same,TGI,[46],> 100 µM
same,TGI,[47],> 100 µM
same,TGI,[48],> 100 µM
same,TGI,[49],> 100 µM
same,TGI,[50],> 100 µM
same,TGI,[51],> 100 µM
same,TGI,[52],> 100 µM
same,TGI,[53],> 100 µM
same,TGI,[55],> 100 µM
same,TGI,[56],> 100 µM
same,TGI,[57],> 100 µM
same,TGI,[58],> 100 µM
